Source: patent US20070066651A1, “Pyrazoline derivatives useful for the treatment of cancer” (LABORATORIOS DEL DR. ESTEVE S.A., priority 2004, published 2007)

Legend:
[1] = target: T1, human recombinant COX-2 (Homo sapiens, UniProt P35354); assay: Cyclooxygenase enzyme assay (TLC method), COX-2; type: biochemical; details: human recombinant COX-2, preincubation 90-120 min, [1-14C] arachidonic acid; read-out: IC50 COX-2, inhibition of cyclooxygenase activity
T1 construct: purchased Oxford Biomedical Research Inc
T1 sequence (P35354 18-604): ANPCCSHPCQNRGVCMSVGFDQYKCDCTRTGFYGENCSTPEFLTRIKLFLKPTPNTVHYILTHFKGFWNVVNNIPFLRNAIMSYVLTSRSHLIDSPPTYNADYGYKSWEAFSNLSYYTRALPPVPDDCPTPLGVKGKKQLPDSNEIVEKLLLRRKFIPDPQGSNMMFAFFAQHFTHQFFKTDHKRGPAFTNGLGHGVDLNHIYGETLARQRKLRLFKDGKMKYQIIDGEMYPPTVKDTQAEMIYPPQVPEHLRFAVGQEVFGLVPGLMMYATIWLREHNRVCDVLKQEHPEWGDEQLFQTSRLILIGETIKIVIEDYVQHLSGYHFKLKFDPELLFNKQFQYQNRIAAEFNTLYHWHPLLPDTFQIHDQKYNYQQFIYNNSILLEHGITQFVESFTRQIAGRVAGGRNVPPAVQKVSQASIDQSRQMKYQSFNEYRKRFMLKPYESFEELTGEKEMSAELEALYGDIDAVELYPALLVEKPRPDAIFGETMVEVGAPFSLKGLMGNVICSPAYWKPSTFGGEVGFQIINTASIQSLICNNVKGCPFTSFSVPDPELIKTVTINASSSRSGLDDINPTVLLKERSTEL
Method: The compounds of formula I are potent inhibitors of COX-2. […] The resulting radiolabeled prostanoid compounds, i.e., the products of COX-2 reaction with arachidonic acid, were quantified.
Cyclooxygenase activity of ovine COX-1 (Oxford Biomedical Research Inc.) and human recombinant COX-2 (Oxford Biomedical Research Inc.) was assayed by a thin layer chromatography (TLC) method as follows. All inhibitors were dissolved in dimethyl sulfoxide to a stock solution of 5 mM. Human recombinant COX-2 (3 units) or ovine COX-1 (15 units) was incubated with inhibitors at several concentrations in a solution containing 100 mM Tris-HCl, pH7.8, 500 μM phenol and hematin for 90 to 120 minutes at room temperature (24° C.). In controls, equal volumes of DMSO without drug were added to the incubation mixture. After incubation for 90-120 minutes, [1-^14C] arachidonic acid (50 μM, 51 mCi/mmol) (DuPont NEN) was added and incubated at 37° C. for 2 minutes. The reaction was terminated by extraction with 1 ml of ethyl acetate. The ethyl acetate layer was transferred into a fresh tube and evaporated to dryness in a Speedvac vacuum dryer. […] Radiolabeled prostanoid compounds (the products of COX enzymatic reaction with radiolabeled arachidonic acid substrate) were quantitated with a radioactivity scanner (Fuji, Phosphorimager). […]

[2] = target: T2, ovine COX-1 (Ovis aries, UniProt P05979); assay: Cyclooxygenase enzyme assay (TLC method), COX-1; type: biochemical; details: ovine COX-1, preincubation 90-120 min, [1-14C] arachidonic acid; read-out: IC50 COX-1, inhibition of cyclooxygenase activity
T2 construct: purchased Oxford Biomedical Research Inc
T2 sequence (P05979 25-600): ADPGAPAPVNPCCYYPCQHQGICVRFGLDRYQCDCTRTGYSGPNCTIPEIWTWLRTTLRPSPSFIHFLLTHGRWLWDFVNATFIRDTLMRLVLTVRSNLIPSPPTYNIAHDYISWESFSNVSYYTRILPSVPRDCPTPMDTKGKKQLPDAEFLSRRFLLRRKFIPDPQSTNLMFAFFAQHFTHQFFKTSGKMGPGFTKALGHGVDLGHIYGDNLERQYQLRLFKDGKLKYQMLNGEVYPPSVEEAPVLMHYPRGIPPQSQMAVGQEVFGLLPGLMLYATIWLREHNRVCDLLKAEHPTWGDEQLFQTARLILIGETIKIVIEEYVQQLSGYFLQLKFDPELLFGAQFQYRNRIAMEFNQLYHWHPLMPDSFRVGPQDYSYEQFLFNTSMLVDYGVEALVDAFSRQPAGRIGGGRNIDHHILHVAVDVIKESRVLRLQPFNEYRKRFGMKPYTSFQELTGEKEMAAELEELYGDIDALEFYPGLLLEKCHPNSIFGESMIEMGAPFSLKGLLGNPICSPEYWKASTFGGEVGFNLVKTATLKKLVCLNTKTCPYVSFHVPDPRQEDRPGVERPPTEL
Method: Cyclooxygenase activity of ovine COX-1 (Oxford Biomedical Research Inc.) and human recombinant COX-2 (Oxford Biomedical Research Inc.) was assayed by a thin layer chromatography (TLC) method as follows. All inhibitors were dissolved in dimethyl sulfoxide to a stock solution of 5 mM. Human recombinant COX-2 (3 units) or ovine COX-1 (15 units) was incubated with inhibitors at several concentrations in a solution containing 100 mM Tris-HCl, pH7.8, 500 μM phenol and hematin for 90 to 120 minutes at room temperature (24° C.). In controls, equal volumes of DMSO without drug were added to the incubation mixture. After incubation for 90-120 minutes, [1-^14C] arachidonic acid (50 μM, 51 mCi/mmol) (DuPont NEN) was added and incubated at 37° C. for 2 minutes. The reaction was terminated by extraction with 1 ml of ethyl acetate. The ethyl acetate layer was transferred into a fresh tube and evaporated to dryness in a Speedvac vacuum dryer. The contents of the tubes were reconstituted in […] of ethyl acetate and spotted on a TLC plate (J. T. Baker, Phillipsburg, N.J.) and developed in a mobile phase containing chloroform/methanol (95:5) at 4° C. Radiolabeled prostanoid compounds (the products of COX enzymatic reaction with radiolabeled arachidonic acid substrate) were quantitated with a radioactivity scanner (Fuji, Phosphorimager). […]

[3] = tested on: DLD-1 cells; assay: Soft agar assay, colony growth of DLD-1 cells; type: cell-based, human; details: highest concentration tested (range 10 μM to 75 μM), one dose, stained after 20 days, versus untreated control cells
Method: The Example 1 and 24 compounds were compared to the COX-2 inhibitor celecoxib in inhibiting the growth of DLD-1 cells in soft agar. DLD-1 cells are human colorectal carcinoma cells that overexpress COX-2. DLD-1 cells grow in soft agar and form tumors in nude mice. The soft agar assay was performed as follows. A layer of bottom agar ([…]) was placed onto 60 mm^2 tissue culture dishes. The tumor cells were trypsinized from normal growth flasks while in exponential growth. The cells were counted by using a hemacytometer and 1.0×10^5 cells were placed into the top agar mixture containing growth medium, 4% noble agar and various concentrations of drugs. The concentration range was normally between 10 μM to 75 μM. The cells were not refed during the assay system; therefore, the cells were treated with one dose of the agents. The plates were stained 20 days later with a 0.05% (w/v) nitroblue tetrazolium solution (which stains only viable cells) for 48 hours. The results are shown in FIG. 1, the y-axis being the percent of cell colonies remaining in comparison to untreated control cells.

IC50 [1]	IC50 [2]	SMILES	inhibition of DLD-1 cell colony growth in soft agar [3]
0.1 µM	> 100 µM	NS(=O)(=O)c1ccc(N2N=C(C(F)(F)F)CC2c2ccccc2)cc1 (stereo not drawn) [Example 1, 1-(4-sulfamylphenyl)-3-trifluoromethyl-5-phenyl-2-pyrazoline]	100%
0.078 µM	> 100 µM	NS(=O)(=O)c1ccc(N2N=C(C(F)(F)F)CC2c2c[nH]c3ccccc23)cc1 (stereo not drawn) [Example 24, 1-(4-sulfamylphenyl)-3-trifluoromethyl-5-(3-indolyl)-2-pyrazoline]	100%
